Test results reported in patent US7250157B2, “Dermatological compositions and methods” (Applied Genetics Incorporated Dermatics, priority 1996, dated 2007).

Tested on: tyrosinase activity in S91 mouse melanoma cells
Experiment: Induction of tyrosinase activity in S91 cells
Experimental: Compounds were examined for their ability to induce tyrosinase activity in S91 mouse melanoma cells. […] Following treatments, cells were trypsinized, counted by Coulter, pelleted by centrifugation at 1000×g, and analyzed for tyrosinase activity using modifications of previously described procedures (Pomerantz, S. H., 1966, J. Biol. Chem. 241:161-168; Jara, et al., 1988, Pigment Cell Res. 1: 332-339.). Briefly, cell pellets were solubilized by sonicating for 5 seconds in 600 ul 50 mM phosphate buffer pH 6.8 containing 0.5% Triton-X100, followed by vortexing, incubation on ice for 30 min, and then revortexing. From this, 200 ul aliquots were combined with 200 ul of reaction mixture containing either 75 uM tyrosine, 75 uM L-Dopa, and 2 uCi L-[3,5-^3H]Tyrosine in 50 mM NaPO4 pH 6.8 (L-Dopa+), or, 75 uM tyrosine, and 2 uCi L-[3,5-^3H]Tyrosine in 50 mM NaPO4 pH 6.8 (L-Dopa−) and incubated 1 hr at 37° C. Reactions were stopped by addition of 400 ul 10% activated charcoal in 0.1N HCl and incubation on ice for 15 min. This mixture was centrifuged at 17,300×g for 5 min, and 400 ul supernatant was then filtered through a 0.22 uM GV Durapore centifugal filter unit (Millipore) by centrifuging at 17,300×g for 5 min. Filtrate was added to 4 ml Fisher Plus scintillation fluid and counted on a Hewlett Packard scintillation counter. Tyrosinase activity was calculated as dpm/hr/ug protein and dpm/hr/10^3 cells. Each sample was analyzed with and without L-Dopa, a necessary cofactor for tyrosinase (Pomerantz, S. H., 1966, J. Biol. Chem. 241:161-168; McLane, et al., 1987, Biochem. Biophys. Res. Commun. 145:719-725). All reported tyrosinase values are exclusive of counts that occurred in buffer blanks and L-dopa negative aliquots. Protein was determined on aliquots of cell lysate, extracellular particulate lysate or media by the Bradford Coomassie Blue method (Bradford, 1967, Anal. Biochem. 72:248-254) using Bio-Rad Protein Assay Kit I.

Question: Which “effect on induction of melanogenesis by 5-NBene-2,2-DM in S91 cells (in words)” value (shortened to “effect on induction of melanogenesis”) does the source give for `COC(=O)[C@@]1(OC)C[C@H]2O[C@]1(C)n1c3ccccc3c3c4c(c5c6ccccc6n2c5c31)C(=O)N(C)C4` [KT5823, reference compound] here?
Answer: reduced induction of melanogenesis by 5-NBene-2,2-DM

Question: For `O=C1C(Nc2ccccc2)=CC(=O)c2ncccc21` [LY83583, 6-anilino-5,8-quinolinequinone, reference compound], which “effect on induction of melanogenesis” value is on record?
Answer: reduced induction of melanogenesis by 5-NBene-2,2-DM

Question: Which “induction of tyrosinase in S91 cells compared with 5-NBene-2,2-DM (FIG. 2)” value does the source give for `C1CC2CCC1C2` [NBane, Norbornane] here?
Answer: Lesser induction

Question: And the induction of tyrosinase (1 or 5 mM (FIG. 2))?
Answer: 2 fold

Question: What about the “induction of tyrosinase relative to untreated or ethanol (ETOH) treated control S91 cells” value (FIG. 2) of the same compound?
Answer: 2 fold

Question: Which “induction of tyrosinase in S91 cells compared with 5-NBene-2,2-DM (FIG. 2)” value does the source give for `OCC1(CO)CC2CCC1C2` (centres unmarked) [NBane-2,2-DM, norbornane-2,2-dimethanol] here?
Answer: equivalent potency

Question: `CC1(C)N([O])C(c2ccccc2)=[N+]([O-])C1(C)C` [PTIO, 2-phenyl-4,4,5,5-tetramethylimidazoline-1-oxyl-3-oxide, reference compound] was tested. Which “effect on induction of melanogenesis” value did it give?
Answer: reduced induction of melanogenesis by 5-NBene-2,2-DM

Question: With `CCSC(=N)N` [S-EITU, S-ethylisothiourea, reference compound] as the compound, how does the “tyrosinase activity in S91 cells (in words)” value (1000 nM S-EITU) read?
Answer: complete ablation of tyrosinase activity

Question: `CC1(C)C2CCC1(C)C(O)C2` (centres unmarked) [borneol] was tested. Which “Fold Induction of Tyrosinase Relative to Controls” value (0.5 mM (Table 19)) did it give?
Answer: 3.7X

Question: What about the “Fold Induction of Tyrosinase Relative to Controls” value (1 mM (Table 19)) of the same compound?
Answer: 2.1X

Question: What about the “Fold Induction of Tyrosinase Relative to Controls” value (2.5 mM (Table 19)) of the same compound?
Answer: 3.7X

Question: What about the “relative melanogenic potency in S91 cells (in words)” value (Table 19 data) of the same compound?
Answer: much less activity

Question: With `CC1CCC(C(C)(C)O)C(O)C1` (stereo not drawn) [cis-p-menthane-3,8-diol] as the compound, how does the “Fold Induction of Tyrosinase Relative to Controls” value (0.5 mM (Table 19)) read?
Answer: 1.6X

Question: What about the “Fold Induction of Tyrosinase Relative to Controls” value (1 mM (Table 19)) of the same compound?
Answer: 3.0X

Question: And the “Fold Induction of Tyrosinase Relative to Controls” value (2.5 mM (Table 19))?
Answer: 17.1X

Question: And the “Fold Induction of Tyrosinase Relative to Controls” value (5 mM (Table 19))?
Answer: 11.6X

Question: Which results are given for `OCC(CO)(CO)CO` [pentaerylthritol]?
Answer: Fold Induction of Tyrosinase Relative to Controls (1 mM (Table 16)): 1.2X; Fold Induction of Tyrosinase Relative to Controls (2.5 mM (Table 16)): 1.9X; Fold Induction of Tyrosinase Relative to Controls (5 mM (Table 16)): 1.5X

Question: How did the “induction of tyrosinase in S91 cells compared with 5-NBene-2,2-DM (FIG. 2)” value turn out when `OC1CC2CCC1C2` (stereo not drawn) [α-NBane-ol, α-Norborneol] was run?
Answer: Lesser induction

Question: Which “effect on induction of tyrosinase by 5-NBene-2,2-DM in S91 cells (in words)” value does the source give for “Bisindolylmaleimide [GF109203X, reference compound]” here?
Answer: augmentation of basal and 5-NBene-2,2-DM-induced tyrosinase levels

Question: What about the “Tyrosinase Relative to Control” value (0.1 uM GF109203X) of the same compound?
Answer: 2.6

Question: And the “Tyrosinase dpm/hr/ug Protein” value (0.1 uM GF109203X)?
Answer: 1025 dpm/hr/ug Protein

Question: What about the “Tyrosinase Relative to Control” value (1 uM GF109203X) of the same compound?
Answer: 6.1X

Question: And the “Tyrosinase dpm/hr/ug Protein” value (1 uM GF109203X)?
Answer: 2407 dpm/hr/ug Protein

Question: How did the “effect on induction of tyrosinase by 5-NBene-2,2-DM in S91 cells (in words)” value turn out when Catalase [reference compound] was run?
Answer: did not inhibit the action of 5-NBene-2,2-DM

Question: What about the “Tyrosinase Relative to Control” value (500 Units Catalase/ml) of the same compound?
Answer: 1.9X

Question: And the “Tyrosinase dpm/hr/ug Protein” value (500 Units Catalase/ml)?
Answer: 745 dpm/hr/ug Protein

Question: And the “Tyrosinase Relative to Control” value (1000 Units Catalase/ml)?
Answer: 1.7X

Question: What about the “Tyrosinase dpm/hr/ug Protein” value (1000 Units Catalase/ml) of the same compound?
Answer: 691 dpm/hr/ug Protein

Question: methyl-5-norbornene-2,3-dimethanol was tested. Which “Fold Induction of Tyrosinase Relative to Controls” value (0.5 mM (Table 16)) did it give?
Answer: 6.0X

Question: What about the “Fold Induction of Tyrosinase Relative to Controls” value (1 mM (Table 16)) of the same compound?
Answer: 8.1X

Question: What about the “Fold Induction of Tyrosinase Relative to Controls” value (2.5 mM (Table 16)) of the same compound?
Answer: 0.8X

Question: How did the “Fold Induction of Tyrosinase Relative to Controls” value (1 mM (Table 15)) turn out when “mono- & di-acetate 2,5 & 6,7-norbornanetriol” was run?
Answer: 1.5X

Question: What about the “Fold Induction of Tyrosinase Relative to Controls” value (2 mM (Table 15)) of the same compound?
Answer: 3.0X
